Measurements taken from ChEMBL document CHEMBL4725353, “Discovery of Pyrido[2,3-b]indole Derivatives with Gram-Negative Activity Targeting Both DNA Gyrase and Topoisomerase IV” (J Med Chem, 2020).
≈ marks a conversion by molar mass, not a printed value. Calls of active or inactive are those of the source. The rule behind the calls is not given here.

Experiments:
Klebsiella pneumoniae [1] = assay: Antibacterial activity against Klebsiella pneumoniae ATCC 700603 assessed as reduction in microbial growth preincubated for 20 to 24 hrs followed by subculture in absence of compound and measured on day 4 CLSI based broth microdilution susceptibility method; assay type: functional; details: time hrs 20-24
[2] = Intrinsic clearance in mouse hepatocytes by LC/MS-MS analysis; assay type: ADME, cell-based, Hepatocyte
[3] = Plasma protein binding in iv dosed CD-1 mouse measured up to 24 hrs by LC-MS/MS analysis; assay type: ADME, organism-based; details: read-out: PPB (converted)
Acinetobacter baumannii [4] = assay: Antibacterial activity against Acinetobacter baumannii ATCC 51432 assessed as reduction in microbial growth preincubated for 20 to 24 hrs followed by subculture in absence of compound and measured on day 4 CLSI based broth microdilution susceptibility method; assay type: functional; details: time hrs 20-24
Klebsiella pneumoniae [5] = assay: Antibacterial activity against Klebsiella pneumoniae ATCC 10031 assessed as reduction in microbial growth preincubated for 20 to 24 hrs followed by subculture in absence of compound and measured on day 4 CLSI based broth microdilution susceptibility method; assay type: functional; details: time hrs 20-24
Escherichia coli [6] = assay: Antibacterial activity against Escherichia coli ATCC 35218 assessed as reduction in microbial growth preincubated for 20 to 24 hrs followed by subculture in absence of compound and measured on day 4 CLSI based broth microdilution susceptibility method; assay type: functional; details: time hrs 20-24
Escherichia coli [7] = assay: Antibacterial activity against Escherichia coli ATCC 25922 infected in ICR mouse model of neutropenic thigh infection assessed as reduction in colony forming unit at 45 mg/kg, iv bid for 12 hrs; assay type: functional, organism-based
Pseudomonas aeruginosa [8] = assay: Antibacterial activity against Pseudomonas aeruginosa PAO1 assessed as reduction in microbial growth preincubated for 20 to 24 hrs followed by subculture in absence of compound and measured on day 4 CLSI based broth microdilution susceptibility method; assay type: functional; details: time hrs 20-24
physchem [9] = details: PBS, pH 6.5
Description: Solubility of compound in PBS at pH 6.5 incubated for over night by HPLC-UV based lyophilization solubility assay

Escherichia coli [10] = assay: Antibacterial activity against Escherichia coli ATCC BAA-2340 assessed as reduction in microbial growth preincubated for 20 to 24 hrs followed by subculture in absence of compound and measured on day 4 CLSI based broth microdilution susceptibility method; assay type: functional; details: time hrs 20-24
Acinetobacter baumannii [11] = assay: Antibacterial activity against Acinetobacter baumannii ATCC BAA-747 assessed as reduction in microbial growth preincubated for 20 to 24 hrs followed by subculture in absence of compound and measured on day 4 CLSI based broth microdilution susceptibility method; assay type: functional; details: time hrs 20-24
Escherichia coli [12] = assay: microbe, parasite or virus in culture; details: ATCC 25922
Description: Antibacterial activity against Escherichia coli ATCC 25922 assessed as reduction in microbial growth preincubated for 20 to 24 hrs followed by subculture in absence of compound and measured on day 4 CLSI based broth microdilution susceptibility method

[13] = Protein binding in plasma (unknown origin) assessed as unbound fraction at 1 uM after 5 hrs by LC/MS-MS analysis; assay type: ADME, cell-free
in vitro = details: mouse, liver microsomes
Description: Intrinsic clearance in mouse liver microsomes preincubated for 10 mins followed by NADPH regenerating system addition and measured up to 30 mins by LC/MS-MS analysis

Escherichia coli [14] = assay: Antibacterial activity against Escherichia coli ATCC 25922 infected in ICR mouse model of neutropenic thigh infection assessed as reduction in microbial growth at 40 to 45 mg/kg, iv bid for 12 hrs; assay type: functional, organism-based
[15] = Half life in iv dosed CD-1 mouse measured up to 24 hrs by LC-MS/MS analysis; assay type: ADME, organism-based; details: in vivo
Pseudomonas aeruginosa [16] = assay: Antibacterial activity against Pseudomonas aeruginosa ATCC 27853 assessed as reduction in microbial growth preincubated for 20 to 24 hrs followed by subculture in absence of compound and measured on day 4 CLSI based broth microdilution susceptibility method; assay type: functional; details: time hrs 20-24
[17] = Ratio of fAUC in Escherichia coli ATCC 25922 infected ICR mouse model of neutropenic thigh infection to MIC for Escherichia coli ATCC […]; assay type: ADME; details: 45 mg/kg, 12 h
[18] = Cmax/dose in iv dosed CD-1 mouse measured up to 24 hrs by LC-MS/MS analysis; assay type: ADME, organism-based; details: in vivo
Acinetobacter baumannii [19] = assay: Antibacterial activity against Acinetobacter baumannii ATCC 19606 assessed as reduction in microbial growth preincubated for 20 to 24 hrs followed by subculture in absence of compound and measured on day 4 CLSI based broth microdilution susceptibility method; assay type: functional; details: time hrs 20-24
Klebsiella pneumoniae [20] = assay: Antibacterial activity against Klebsiella pneumoniae ATCC BAA-2146 assessed as reduction in microbial growth preincubated for 20 to 24 hrs followed by subculture in absence of compound and measured on day 4 CLSI based broth microdilution susceptibility method; assay type: functional; details: time hrs 20-24
Pseudomonas aeruginosa [21] = assay: Antibacterial activity against Pseudomonas aeruginosa ATCC BAA-2113 assessed as reduction in microbial growth preincubated for 20 to 24 hrs followed by subculture in absence of compound and measured on day 4 CLSI based broth microdilution susceptibility method; assay type: functional; details: time hrs 20-24
Escherichia coli [22] = assay: Antibacterial activity against Escherichia coli ATCC 25922 infected in ICR mouse model of neutropenic thigh infection assessed as reduction in microbial growth at 10 to 25 mg/kg, iv and measured after 12 hrs; assay type: functional, organism-based; details: dose mg/kg 10-25, time 12.0 hrs
[23] = fAUC in Escherichia coli ATCC 25922 infected ICR mouse model of neutropenic thigh infection; assay type: ADME; details: 45 mg/kg, 12 h
[24] = Volume of distribution at steady state in iv dosed CD-1 mouse measured up to 24 hrs by LC-MS/MS analysis; assay type: ADME, organism-based; details: in vivo, read-out: Vdss
[25] = Clearance in iv dosed CD-1 mouse measured up to 24 hrs by LC-MS/MS analysis; assay type: ADME, organism-based; details: in vivo
[26] = AUC/dose in iv dosed CD-1 mouse measured up to 24 hrs by LC-MS/MS analysis; assay type: ADME, organism-based; details: in vivo
physchem [27] = assay: physchem
Description: Ionization constant (acid), pKa of the compound by photometric titration assay

[28] = Distribution coefficient between octanol and buffer, log D of the compound in pH 7.4 buffer by CAMDIS assay; assay type: physicochemical
[29] = Dissociation constant, pKa of compound by photometric titration assay; assay type: physicochemical
Escherichia coli [30] = assay: microbe, parasite or virus in culture; details: ATCC 29213
Description: Antibacterial activity against Escherichia coli ATCC 29213 assessed as reduction in microbial growth preincubated for 20 to 24 hrs followed by subculture in absence of compound and measured on day 4 CLSI based broth microdilution susceptibility method

| MIC (Klebsiella pneumoniae [1]) | CLH [2] | fraction unbound at 24 h [3] | MIC (Acinetobacter baumannii [4]) | MIC (Klebsiella pneumoniae [5]) | MIC (Escherichia coli [6]) | MIC (Pseudomonas aeruginosa [8]) | solubility (physchem [9]) | MIC (Escherichia coli [10]) | MIC (Acinetobacter baumannii [11]) | MIC (Escherichia coli [12]) | fraction unbound at 5 h, 1 µM [13] | CLint scaled at 0.5 h (in vitro) | half-life [15] | Cmax/dose [18] | MIC (Acinetobacter baumannii [19]) | MIC (Klebsiella pneumoniae [20]) | MIC (Pseudomonas aeruginosa [21]) | Vd [24] | clearance [25] | Structure (SMILES) | other results |
| --- | --- | --- | --- | --- | --- | --- | --- | --- | --- | --- | --- | --- | --- | --- | --- | --- | --- | --- | --- | --- | --- |
| 6.26 µg/mL | 45.3 µg/mL | 0.11 | 0.78 µg/mL | < 0.02 µg/mL | 3.13 µg/mL | 1.3 µg/mL | 15 µg/mL (≈ 30 µM) | 12.5 µg/mL | 0.39 µg/mL | 0.31 µg/mL (≈ 0.619 µM) | 0.027 | < 20.2 mL/min/kg | 1.6 h | 494 kg·ng/mL/mg | 0.78 µg/mL | 12.5 µg/mL | 1.56 µg/mL | 3.6 L/kg | 48 mL/min/kg | CCNc1cc(F)cc2c1[nH]c1ncc(-c3cnc(OC)nc3)c(-n3cc(CN)c(C(F)(F)F)n3)c12 | Activity (Escherichia coli [7]): Active; Activity (Escherichia coli [14]): Active; MIC (Pseudomonas aeruginosa [16]): 1.56 µg/mL; fAUC/MIC [17]: >= 6; Activity (Escherichia coli [22]): Active; fAUC [23]: 30000 ng·h/mL; AUC/dose [26]: 341 kg·ng·h/mL/mg |
| 4 µg/mL | 48.6 µg/mL | 0.11 | 1 µg/mL | < 0.03 µg/mL | 1 µg/mL | 2 µg/mL | 90 µg/mL (≈ 182 µM) | 2 µg/mL | 0.5 µg/mL | < 0.25 µg/mL | 0.012 | 47 mL/min/kg | 1.8 h | 305 kg·ng/mL/mg | 1 µg/mL | 8 µg/mL | 2 µg/mL | 5.8 L/kg | 50 mL/min/kg | CCNc1cc(F)cc2c1[nH]c1ncc(-c3cncc(C#N)c3)c(-n3cc(CN)c(C(F)(F)F)n3)c12 | pKa (physchem [27]): 8.08; AUC/dose [26]: 324 kg·ng·h/mL/mg |
| 22.2 µg/mL | 53.9 µg/mL | 0.11 | 5.56 µg/mL | 0.09 µg/mL | 5.56 µg/mL | 10 µg/mL | 350 µg/mL (≈ 787 µM) | 2.78 µg/mL | 2.78 µg/mL | 0.81 µg/mL (≈ 1.82 µM) | 0.11 | 21.8 mL/min/kg | 0.8 h | 792 kg·ng/mL/mg | 5.56 µg/mL | 22.2 µg/mL | 11.1 µg/mL | 1.6 L/kg | 51 mL/min/kg | CCNc1cc(F)cc2c1[nH]c1ncc(-c3cnc(OC)nc3)c(-n3ncc4c3CNC4)c12 | MIC (Pseudomonas aeruginosa [16]): 11.1 µg/mL; AUC/dose [26]: 327 kg·ng·h/mL/mg |
|  |  |  |  |  |  |  |  |  |  | > 11.4 µg/mL |  |  |  |  |  |  |  |  |  | CCNc1cc(F)cc2c1[nH]c1ncc(-c3cncc(Cc4nnn[nH]4)c3)c(-n3ccc(C(F)(F)F)n3)c12 | logD [28]: 1.93; pKa [29]: 4.78; MIC (Escherichia coli [30]): 0.444 µg/mL (≈ 0.85 µM) |
